This is an account of results in PMC9150102 (Journal of Medicinal Chemistry, 2022).

Where two headings read alike, the source gives them in different places.

As usually defined, the LD50 is the dose at which mortality reaches 50%. As usually defined, the half-life is how long it takes for the measured level to halve. Broadly, the IC50 is the point on the concentration scale where inhibition reaches its midpoint.

Data set [1] is described as follows: Acute toxicity (LD50) in mice. The settings on record: male, Albino Swiss CD-1, mouse, in vivo, po.
Procedure: Acute toxicity (LD50) was preliminarily evaluated in mice following i.v. and oral drug administration.
Control animals received the vehicle only.
Drug toxicity studies in mice
Acute toxicity was determined in CD1 mice. Separate mice groups were either orally treated, or
intravenously injected, with increasing doses of the tested substance to identify the dose causing 50%
mortality (LD50). Acute mortality was assessed at 30 min after compound administration; survival was
A further data set has as its system Albino Swiss CD-1 mice. Set-up: method as in PMID 36153005. To be noted: i.v. administration; cited from earlier work.
For data set [2] the following is noted: cited from earlier work.
Data set [3] concerns the target T1, Na^+/K^+ ATPase-alpha1 isoform purified from dog kidneys (Canis lupus familiaris, UniProt P50997).
T1 construct: excised from 1–3-year-old male beagle dogs; from tissue; host or cells: dog (beagle) kidney outer medulla, Jørgensen purification
Details: method as in PMID 36153005. To be noted: dog renal preparations; cited from earlier work.

In data set [4] the target is T1, Na^+/K^+ ATPase-alpha1 isoform purified from dog kidneys. The experiment in a line: Na+/K+ ATPase activity inhibition, purified dog kidney enzyme (32P-ATP hydrolysis). Type of data set: biochemical. The procedure:
Compounds were tested in a concentration range from 10^–9 to 10^–4 M on a purified renal Na^+/K^+ ATPase preparation with a specific activity of 14 μmol/min/mg protein.
Figure 2 Na^+/K^+ ATPase activity inhibition in a dog purified enzyme preparation. All compounds were tested in a concentration range from 10^–9 to 10^–4 M in comparison to ouabain.
The inhibitory effect of compounds was tested at multiple concentrations on Na^+/K^+ ATPase-alpha1 isoform purified from dog kidneys. […]
Renal Na+/K+ ATPase purification and activity
Purification of renal Na+/K+ ATPase was performed according to the method of Jørgensen2. Kidneys were excised from 1–3-year-old male beagle dogs, obtained from the General Pharmacology Department of Sigma-tau, Pomezia, Italy, under pentobarbital anesthesia. Kidneys were sliced and the outer medulla was dissected, pooled and suspended (1g in 10 ml) in a sucrose-histidine solution, containing 250 mM sucrose, 30 mM histidine and 5 mM EDTA, pH 7.2 and homogenized. The homogenate was centrifuged at 6,000 g for 15 min, the supernatant was decanted and centrifuged at 48,000 g for 30 min. The pellet was suspended in the sucrose-histidine buffer and incubated for 20 min with a sodium-dodecyl-sulphate (SDS) solution, dissolved in a gradient buffer, containing 25 mM imidazole and 1 mM EDTA, pH 7.5. The sample was layered on the top of a sucrose discontinuous gradient (10, 15 and 29.4%) and centrifuged at 60,000 g for 115 min. The final pellet was suspended in the gradient buffer.
Na+/K+ ATPase activity was assayed by measuring 32P-ATP hydrolysis, as previously described3.
Increasing concentrations of the standard ouabain, or tested compound, were incubated with 0.3 μg of purified dog kidney enzyme for 10 min at 37°C in 120 μl final volume of a medium, containing 140 mM NaCl, 3 mM MgCl2, 50 mM Hepes-Tris, 3 mM ATP, pH 7.5. Then, 10 μl of incubation solution containing 10 mM KCl and 20 nCi of 32P-ATP (3-10 Ci/mmol, Perkin Elmer) were added, the reaction continued for 15 min at 37°C and was stopped by acidification with 20% ice-cold perchloric acid.
32P was separated by centrifugation with activated Charcoal (Norit A, Serva) and the radioactivity was measured. Effects of increasing concentrations of the tested compound were compared to ouabain, as positive standard, and to vehicle (control) at 37°C. The inhibitory activity was expressed as percent of activity in control. The concentration of compound causing 50% inhibition of the Na+/K+ ATPase activity (IC50) was calculated by non-linear fitting of data points (KaleidagraphTM, Sinergy Software). […]

The next data set addresses T2, SERCA2a (Cavia porcellus, UniProt A0A286XFU8).
T2 construct: from tissue; host or cells: guinea pig left ventricle, SR-enriched microsomes
The experiment in a line: SERCA2a ATPase activity, Ca2+ dependency in cardiac SR microsomes from healthy guinea pigs. The settings on record: for SERCA2a–Ca2+ affinity (KdCa) modulation (words): 10 and 100 nM, healthy guinea pig SR preparations. Type of data set: biochemical, guinea pig. The protocol: SERCA2a ATPase activity was assessed in SR preparations from healthy guinea pig hearts. Ca^2+ dependency of ATPase activity was measured, and kinetic parameters (KdCa and Vmax) were estimated at compound concentrations of 10 and 100 nM.
[…] […] Data are the mean ± SEM. *p < 0.05 (one-way RM ANOVA plus post hoc Tukey’s multiple comparisons or paired t-test).
Measurements were performed in cardiac SR microsomes (guinea pig) and in whole tissue homogenates (rat). Cardiac preparations included SERCA2a and PLN. To test for PLN involvement in the effect of compounds, SERCA1 activity was measured in PLN-free microsomes (from guinea pig skeletal muscle) before and after reconstitution with the synthetic PLN1–32 inhibitory fragment at a ratio of 300:1 for PLN/SERCA. […] Either an increase in Vmax (rat) or a decrease in KdCa (increased Ca^2+ affinity) (guinea pig) stands for enhancement of SERCA function. […]
Left ventricles (LV) were dissected from rat and guinea -pig of healthy and failing preparations and frozen until use. Tissues were homogenized, subjected to centrifugation to obtain SR -enriched microsomes and sarcomeric proteins were extracted, as previously described 4.
(§1) In the case of guinea-pig hearts, LV tissues were homogenized in 4 volumes of 10 mM NaHCO3, 1 mM PMSF, 10 μg/ml aprotinin and leupeptin (pH 7) and centrifuged at 12,000g for 15 minutes. Supernatants were filtered and centrifuged at 100,000 g for 30 min. Contractile proteins were extracted by suspending the pellets with 0.6 M KCl, 30 mM histidine, pH 7 and further centrifugation at 100,000 g for 30 min.
(§2) Final pellets were reconstituted with 0.3 M sucrose, 30 mM histidine, pH 7, to obtain SR-enriched […]
SERCA2a ATPase activity was measured as the rate of 32P-ATP release at multiple Ca2+ concentrations (100-2000 nM) in the absence and presence of tested compounds, as previously described5. Increasing concentrations of each compound were pre-incubated with 2 μg of cardiac preparations for 5 min at 4° C in 80 μl of a solution containing 100 mM KCl, 5 mM MgCl2, 1 μM A23187, 20 mM Tris, pH 7.5. Then, 20 μl of 5 mM Tris-ATP containing 50 nCi of 32P-ATP (3-10 Ci/mmol, Perkin Elmer) were added. The ATP hydrolysis was continued for 15 min at 37°C and the reaction was stopped by acidification with 100 μl of 20% ice-cold perchloric acid. 32P was separated by centrifugation with activated charcoal (Norit A, Serva) and the radioactivity was measured. SERCA2a-dependent ATPase activity was identified as the portion of total hydrolytic activity inhibited by cyclopiazonic acid (CPA, 10 µM). Technical replicates were used to ensure the reliability of single values. […]

Data set [5] has as its system SERCA1 reconstituted with PLN1–32 fragment. The experiment in a line: SERCA1 ATPase activity after reconstitution with PLN1-32 fragment. Type of data set: biochemical, guinea pig. To be noted: PLN/SERCA 300:1. The protocol:
Data are the mean ± SEM. *p < 0.05 (one-way RM ANOVA plus post hoc Tukey’s multiple comparisons or paired t-test).
Measurements were performed in cardiac SR microsomes (guinea pig) and in whole tissue homogenates (rat). Cardiac preparations included SERCA2a and PLN. To test for PLN involvement in the effect of compounds, SERCA1 activity was measured in PLN-free microsomes (from guinea pig skeletal muscle) before and after reconstitution with the synthetic PLN1–32 inhibitory fragment at a ratio of 300:1 for PLN/SERCA. […] Either an increase in Vmax (rat) or a decrease in KdCa (increased Ca^2+ affinity) (guinea pig) stands for enhancement of SERCA function.
(rats). As verified by Western blot, cardiac microsomes preparations included SERCA2a and PLN and skeletal muscle ones included SERCA1 only.
SERCA stimulation4, compounds were also tested on SERCA1 in microsomes of guinea-pig skeletal muscle (PLN-free) before and after reconstitution with the PLN1-32 inhibitory fragment at a ratio of 300:1 […]
Tissues were homogenized, subjected to centrifugation to obtain SR -enriched microsomes and sarcomeric proteins were extracted, as previously described 4.
as §1, §2
SERCA2a ATPase activity was measured as the rate of 32P-ATP release at multiple Ca2+ concentrations (100-2000 nM) in the absence and presence of tested compounds, as previously described5. Increasing concentrations of each compound were pre-incubated with 2 μg of cardiac preparations for 5 min at 4° C in 80 μl of a solution containing 100 mM KCl, 5 mM MgCl2, 1 μM A23187, 20 mM Tris, pH 7.5. Then, 20 μl of 5 mM Tris-ATP containing 50 nCi of 32P-ATP (3-10 Ci/mmol, Perkin Elmer) were added. The ATP hydrolysis was continued for 15 min at 37°C and the reaction was stopped by acidification with 100 μl of 20% ice-cold perchloric acid. 32P was separated by centrifugation with activated charcoal (Norit A, Serva) and the radioactivity was measured. SERCA2a-dependent ATPase activity was identified as the portion of total hydrolytic activity inhibited by cyclopiazonic acid (CPA, 10 µM). Technical replicates were used to ensure the reliability of single values.
Reconstitution of SERCA1 with PLN1-32 synthetic fragment
Adult healthy male guinea-pigs were used to prepare SERCA1-enriched SR microsomes from fast-twitch hind leg muscles. Microsomes were prepared as described for SERCA2a preparations. For reconstitution experiments, SERCA1 (PLN-free) was pre-incubated with synthetic PLN1-32 fragment (canine sequence, Biomatik Corporation, Canada) in 20 mM imidazole, pH 7, at 1:300 SERCA1:PLN ratio for 30 min at room temperature. After pre-incubation, SERCA1 (PLN-free) alone, or reconstituted with PLN1-32 […]
fragment, was utilized for SERCA activity measurement by using 32P-ATP hydrolysis method at different

Data set [6] deals with skeletal SERCA1 (sarcoplasmic reticulum calcium ATPase 1) (guinea pig (endogenous in skeletal muscle)).
Where [7] appears, read: read-out: NKA Inhibition (IC50 µM).

T2 sequence (A0A286XFU8 entry or part of it): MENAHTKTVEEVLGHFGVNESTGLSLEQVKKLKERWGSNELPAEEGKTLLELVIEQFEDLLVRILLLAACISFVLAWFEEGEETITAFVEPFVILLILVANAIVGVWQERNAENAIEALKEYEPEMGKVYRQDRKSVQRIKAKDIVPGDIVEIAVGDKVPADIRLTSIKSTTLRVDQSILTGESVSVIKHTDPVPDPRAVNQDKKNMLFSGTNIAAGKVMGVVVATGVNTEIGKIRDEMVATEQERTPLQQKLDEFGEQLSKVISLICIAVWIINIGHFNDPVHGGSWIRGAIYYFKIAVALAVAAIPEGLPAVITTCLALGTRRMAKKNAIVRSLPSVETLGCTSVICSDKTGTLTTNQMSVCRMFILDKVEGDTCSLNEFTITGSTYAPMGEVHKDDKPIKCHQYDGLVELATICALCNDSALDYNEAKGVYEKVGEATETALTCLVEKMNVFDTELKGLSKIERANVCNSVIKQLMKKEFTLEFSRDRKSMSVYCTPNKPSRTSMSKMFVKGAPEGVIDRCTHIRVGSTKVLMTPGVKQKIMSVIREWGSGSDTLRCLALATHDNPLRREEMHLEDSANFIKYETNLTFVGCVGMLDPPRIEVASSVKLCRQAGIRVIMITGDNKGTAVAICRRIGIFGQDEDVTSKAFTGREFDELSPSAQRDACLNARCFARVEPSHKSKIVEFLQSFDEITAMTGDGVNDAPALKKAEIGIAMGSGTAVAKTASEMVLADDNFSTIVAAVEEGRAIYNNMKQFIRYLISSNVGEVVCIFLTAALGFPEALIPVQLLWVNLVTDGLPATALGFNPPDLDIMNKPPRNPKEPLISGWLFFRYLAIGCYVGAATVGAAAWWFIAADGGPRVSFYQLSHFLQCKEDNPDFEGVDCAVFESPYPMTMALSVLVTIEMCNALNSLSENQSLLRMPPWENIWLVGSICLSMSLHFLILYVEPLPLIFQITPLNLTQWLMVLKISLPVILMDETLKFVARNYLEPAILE

The compound `C[C@]12CCC(=NOCCN)C[C@@H]1C(=O)C[C@@H]1[C@@H]2CC[C@]2(C)C(=O)CC[C@@H]12` (mixture of isomers) [istaroxime] displayed an LD50 at 24 h in data set [1] of 200 mg/kg. Also, the LD50 in the data set on Albino Swiss CD-1 mice is 23 mg/kg. For the same compound, the half-life in data set [2] is given as about 1 h. For the same compound, the IC50 in data set [3] is 140 nM.

`C[C@]12CC/C(=C/CCC(=O)O)C[C@@H]1[C@H](O)C[C@@H]1[C@@H]2CC[C@]2(C)C(=O)CC[C@@H]12` [Compound 4] returned an IC50 in data set [4] of over 100 µM. For the same compound, on SERCA2a, the “SERCA2a–Ca2+ affinity (KdCa) modulation (words)” value (shortened to “SERCA2a–Ca2+ affinity”) is “inactive”.

`C[C@]12CC[C@H](CCCC(=O)O)C[C@@H]1[C@H](O)C[C@@H]1[C@@H]2CC[C@]2(C)C(=O)CC[C@@H]12` [Compound 6] registered an IC50 in data set [4] of over 100 µM. Moreover, the “SERCA2a Stimulation @100 nM (DELTA% KdCa)” value on SERCA2a (100 nM) is -23%.

For the compound `C[C@]12CC/C(=C/CCC(=O)O)C[C@@H]1[C@@H](O)C[C@@H]1[C@@H]2CC[C@]2(C)C(=O)CC[C@@H]12` [Compound 2], the IC50 in data set [4] was over 100 µM. Moreover, on SERCA2a, the “SERCA2a–Ca2+ affinity” value was “inactive”.

`CCOC(=O)CCCCC[C@H]1CC[C@@]2(C)[C@H](C1)[C@@H](O)C[C@@H]1[C@@H]2CC[C@]2(C)C(=O)CC[C@@H]12` [Compound 12]: the IC50 in data set [4] (setting [7]) is over 100 µM. Further, the “SERCA2a–Ca2+ affinity” value at SERCA2a was “slightly less active”.

`C[C@]12CC[C@H](CC(=O)O)C[C@@H]1[C@H](O)C[C@@H]1[C@@H]2CC[C@]2(C)C(=O)CC[C@@H]12` [Compound 9]: the “SERCA2a–Ca2+ affinity” value on SERCA2a was “inactive”.

Consider `C[C@]12CC[C@H](CCCCCC(=O)O)C[C@@H]1[C@@H](O)C[C@@H]1[C@@H]2CC[C@]2(C)C(=O)CC[C@@H]12` [Compound 11], for which the IC50 in data set [4] (setting [7]) is over 100 µM. Besides, the “SERCA2a Stimulation @100 nM (DELTA% KdCa)” value at SERCA2a (100 nM) is -20%. Further, at SERCA2a, the “SERCA2a–Ca2+ affinity” value is reported as “slightly less active”.

For `CCOC(=O)C[C@H]1CC[C@@]2(C)[C@H](C1)[C@@H](O)C[C@@H]1[C@@H]2CC[C@]2(C)C(=O)CC[C@@H]12` [Compound 10], the IC50 in data set [4] was over 100 µM. The “SERCA2a Stimulation @100 nM (DELTA% KdCa)” value on SERCA2a (100 nM) was -26%.

On to `CCOC(=O)CCC[C@H]1CC[C@@]2(C)[C@H](C1)[C@@H](O)C[C@@H]1[C@@H]2CC[C@]2(C)C(=O)CC[C@@H]12` [Compound 7], for which, in data set [4] (setting [7]), the 50% inhibitory concentration (IC50) was over 100 µM. In addition, the “SERCA2a Stimulation @100 nM (DELTA% KdCa)” value at SERCA2a (100 nM) is reported as -23%.

`C[C@]12CC/C(=C\CCC(=O)O)C[C@@H]1[C@@H](O)C[C@@H]1[C@@H]2CC[C@]2(C)C(=O)CC[C@@H]12` [Compound 1] returned an IC50 in data set [4] of over 100 µM. At SERCA2a (100 nM), the “SERCA2a Stimulation @100 nM (DELTA% KdCa)” value is recorded as -15%. The “SERCA2a KdCa reduced by” value at SERCA2a (100 nM, guinea pig preparation) was found to be 15%.

Consider `C[C@]12CC/C(=C\CCC(=O)O)C[C@@H]1[C@H](O)C[C@@H]1[C@@H]2CC[C@]2(C)C(=O)CC[C@@H]12` [Compound 3], for which the “SERCA2a–Ca2+ affinity” value is “inactive” on SERCA2a and “only a trend to SERCA2a KdCa reduction” on SERCA2a (listed as compound 3).

Take “PLN1–32 fragment: synthetic PLN1-32 inhibitory fragment of phospholamban (canine sequence, Biomatik) (MEKVQYLTRSAIRRASTIEMPQQARQKLQNLF) [reference compound]”: the “SERCA1 KdCa increased by (reconstitution with PLN1–32)” value in data set [5] was 23–25%.

“synthetic PLN(1-32) inhibitory fragment of phospholamban (from UniProt P26678 1-32) (peptide)”: the increase of KdCa (Ca2+ dependency of SERCA1 ATPase activity, 32P-ATP, 37 °C) after reconstitution of skeletal muscle microsomes with PLN(1-32) at 300:1 PLN/SERCA; Vmax not affected in data set [6] was in the range of 23 to 25%.
